Key:
[1] = tested on: SMN2 minigene mRNA (SMN2-A minigene construct); assay: SMN2 minigene mRNA splicing RT-qPCR assay in cultured cells; format: cell-based, human; details: Homo sapiens, HEK293-H; HEK293H cells stably transfected with SMN2-A minigene, 24 hours, 7-point concentration data; concentration giving 1.5-fold SMN2 full length mRNA relative to vehicle-treated cells; read-out: EC1.5x for production of full length SMN2 mRNA
Procedure: The reverse transcription-quantitative PCR-based (RT-qPCR) assay is used to quantify the level of the full length SMN2 minigene mRNA containing SMN2 exon 7 in a HEK293H cell line stably transfected with said minigene and treated with a test compound.
HEK293H cells stably transfected with the SMN2-A minigene construct described above (10,000 cells/well) are seeded in 200 μL of cell culture medium (DMEM plus 10% FBS, with 200 μg/mL hygromycin) in 96-well flat-bottom plates and the plate is immediately swirled to ensure proper dispersal of cells, forming an even monolayer of cells. Cells are allowed to attach for at least 4-6 hours. Test compounds are serially diluted 3.16-fold in 100% DMSO to generate a 7-point concentration curve. A solution of test compound (1 μL, 200× in DMSO) is added to each cell-containing well and the plate is incubated for 24 hours in a cell culture incubator (37° C., 5% CO2, 100% relative humidity). Two replicates are prepared for each test compound concentration. The cells are then lysed in Cells-To-Ct lysis buffer and the lysate is stored at −80° C.
Primer SMN Forward A (SEQ ID NO. 1) hybridizes to a nucleotide sequence in exon 7 (nucleotide 22 to nucleotide 40), primer SMN Reverse A (SEQ ID NO. 2) hybridizes to a nucleotide sequence in the coding sequence of Firefly luciferase, SMN Probe A (SEQ ID NO. 3) hybridizes to a nucleotide sequence in exon 7 (nucleotide 50 to nucleotide 54) and exon 8 (nucleotide 1 to nucleotide 21). The combination of these three oligonucleotides detects only SMN1 or SMN2 minigenes (RT-qPCR) and will not detect endogenous SMN1 or SMN2 genes.
The SMN forward and reverse primers are used at final concentrations of 0.4 μM. The SMN probe is used at a final concentration of 0.15 μM. The GAPDH primers are used at final concentrations of 0.2 μM and the probe at 0.15 μM.
The SMN2-minigene GAPDH mix (15 μL total volume) is prepared by combining 7.5 μL of 2×RT-PCR buffer, 0.4 μL of 25×RT-PCR enzyme mix, 0.75 μL of 20×GAPDH primer-probe mix, 4.0075 μL of water, 2 μL of 10-fold diluted cell lysate, 0.06 μL of 100 μM SMN forward primer, 0.06 μL of 100 μM SMN reverse primer, and 0.225 μL of 100 μM SMN probe.
PCR is carried out at the following temperatures for the indicated time: Step 1: 48° C. (15 min); Step 2: 95° C. (10 min); Step 3: 95° C. (15 sec); Step 4: 60° C. (1 min); then repeat Steps 3 and 4 for a total of 40 cycles.
Each reaction mixture contains both SMN2-A minigene and GAPDH primers/probe sets (multiplex design), allowing simultaneous measurement of the levels of two transcripts.
Two SMN spliced products are generated from the SMN2 minigene. The first spliced product containing exon 7, corresponding to SMN2 full length mRNA, is referred to herein using the term “SMN2 minigene FL.” The second spliced product lacking exon 7 is referred to herein using the term “SMN2 minigene Δ7.”
The increase of SMN2 minigene FL mRNA relative to that in cells treated with vehicle control is determined from real-time PCR data using a modified ΔΔCt method (as described in Livak and Schmittgen, Methods, 2001, 25:402-8). The amplification efficiency (E) is calculated from the slope of the amplification curve for SMN2 minigene FL and GAPDH individually. The abundances of SMN2 minigene FL and GAPDH are then calculated as (1+E)^−Ct, where Ct is the threshold value for each amplicon. The abundance of SMN2 minigene FL is normalized to GAPDH abundance. The normalized SMN2 minigene FL abundance from test compound-treated samples is then divided by normalized SMN2 minigene FL abundance from vehicle-treated cells to determine the level of SMN2 FL mRNA relative to vehicle control.

Smn protein = Smn protein assay (HTRF) in cultured cells (SMA patient fibroblasts GM03813); format: cell-based, human; details: 48 hours; for EC1.5x for Smn protein expression: SMA patient fibroblast cells (GM03813), HTRF, 7-point concentration data, concentration producing 1.5 times Smn protein vs DMSO vehicle control; for maximum fold (Fold) increase of Smn protein: SMA patient fibroblast cells, 7-point concentration curve, relative to vehicle control
Procedure: The Smn HTRF (homogeneous time resolved fluorescence) assay is used to quantify the level of Smn protein in SMA patient fibroblast cells treated with test compounds.
Cells are thawed and cultured in DMEM-10% FBS for 72 hours. Cells are trypsinized, counted and re-suspended to a concentration of 25,000 cells/mL in DMEM-10% FBS. The cell suspension is plated at 5,000 cells per well in a 96 well microtiter plate and incubated for 3 to 5 hours. […] Test compounds are serially diluted 3.16-fold in 100% DMSO to generate a 7-point concentration curve. 1 μL of test compound solution is transferred to cell-containing wells and cells are incubated for 48 hours in a cell culture incubator (37° C., 5% CO2, 100% relative humidity). Triplicate samples are set up for each test compound concentration. After 48 hours, the supernatant is removed from the wells and 25 μL of the RIPA lysis buffer, containing protease inhibitors, is added to the wells and incubated with shaking at room temperature for 1 hour. 25 μL of the diluent is added and then 35 μL of the resulting lysate is transferred to a 384-well plate, where each well contains 5 μL of the antibody solution (1:100 dilution of anti-SMN d2 and anti-SMN kryptate in SMN reconstitution buffer). The plate is centrifuged for 1 minute to bring the solution to the bottom of the wells, then incubated overnight at room temperature. Fluorescence for each well of the plate at 665 nm and 620 nm is measured on an EnVision multilabel plate reader (Perkin-Elmer).
The normalized fluorescence signal is calculated for each sample, Blank and vehicle control well by dividing the signal at 665 nm by the signal at 620 nm. Normalizing the signal accounts for possible fluorescence quenching due to the matrix effect of the lysate. The ΔF value (a measurement of Smn protein abundance as a percent value) for each sample well is calculated by subtracting the normalized average fluorescence for the Blank control wells from the normalized fluorescence for each sample well, then dividing this difference by the normalized average fluorescence for the Blank control wells and multiplying the resulting value by 100. The ΔF value for each sample well represents the Smn protein abundance from test compound-treated samples. The ΔF value for each sample well is divided by the ΔF value for the vehicle control wells to calculate the fold increase in Smn protein abundance relative to the vehicle control.

Row | Structure (SMILES) | EC (1.5-fold) [1] [µM] | EC1.5x for Smn protein expression (Smn protein) | maximum fold (Fold) increase of Smn protein (Smn protein) | melting point [°C]
1 | O=c1oc2nc(N3CCNCC3)ccc2cc1-c1nc2ccccc2s1 [Cpd 1, 3-(1,3-benzothiazol-2-yl)-7-(piperazin-1-yl)-2H-pyrano[2,3-b]pyridin-2-one] | 0.1 to 0.3 | *** (an EC1.5× between >0.3 μM and ≦1 μM is indicated by three stars (***)) | *** (a fold increase between >1.35 and ≦1.5 is indicated by three stars (***)) | 258 to 260
2 | CN1CCN(c2ccc3cc(-c4nc5ccccc5s4)c(=O)oc3n2)CC1 [Cpd 3, 3-(1,3-benzothiazol-2-yl)-7-(4-methylpiperazin-1-yl)-2H-pyrano[2,3-b]pyridin-2-one] | 0.3 to 1 | * (An EC1.5× for Smn protein expression between >3 μM and ≦10 μM is indicated by one star (*)) | *** (a fold increase between >1.35 and ≦1.5 is indicated by three stars (***)) | 247 to 250
3 | O=c1oc2nc(N3CCN(Cc4ccccc4O)CC3)ccc2cc1-c1nc2c(Cl)cccc2s1 [Cpd 6, 3-(4-chloro-1,3-benzothiazol-2-yl)-7-[4-(2-hydroxybenzyl)piperazin-1-yl]-2H-pyrano[2,3-b]pyridin-2-one] | 3 to 30 | – | ** (a fold increase between >1.2 and ≦1.35 is indicated by two stars (**)) | 262 to 266
4 | Cl.O=c1oc2cc(N3CCNCC3)ncc2cc1-c1nc2c(Cl)cccc2s1 [Cpd 9, 3-(4-chloro-1,3-benzothiazol-2-yl)-7-(piperazin-1-yl)-2H-pyrano[3,2-c]pyridin-2-one hydrochloride] | 0.1 to 0.3 | – | * (A maximum fold increase ≦1.2 is indicated by one star (*)) | 266 to 270
5 | O=c1oc2nc(N3CCN(CCO)CC3)ccc2cc1-c1nc2c(Cl)cccc2s1 [Cpd 10, 3-(4-chloro-1,3-benzothiazol-2-yl)-7-[4-(2-hydroxyethyl)piperazin-1-yl]-2H-pyrano[2,3-b]pyridin-2-one] | 0.3 to 1 | *** (an EC1.5× between >0.3 μM and ≦1 μM is indicated by three stars (***)) | *** (a fold increase between >1.35 and ≦1.5 is indicated by three stars (***)) | 258 to 262
6 | CN1CCN(c2cc3oc(=O)c(-c4nc5c(Cl)cccc5s4)cc3cn2)CC1 [Cpd 11, 3-(4-chloro-1,3-benzothiazol-2-yl)-7-(4-methylpiperazin-1-yl)-2H-pyrano[3,2-c]pyridin-2-one] | 0.3 to 1 | – | * (A maximum fold increase ≦1.2 is indicated by one star (*)) | 285 to 288
7 | CCN1CCN(c2ccc3cc(-c4nc5c(Cl)cccc5s4)c(=O)oc3n2)CC1 [Cpd 12, 3-(4-chloro-1,3-benzothiazol-2-yl)-7-(4-ethylpiperazin-1-yl)-2H-pyrano[2,3-b]pyridin-2-one] | 0.3 to 1 | – | *** (a fold increase between >1.35 and ≦1.5 is indicated by three stars (***)) | 266 to 269
8 | Cl.O=c1oc2nc(N3CCNCC3)ccc2cc1-c1cn2cccnc2n1 [Cpd 112, 3-(imidazo[1,2-a]pyrimidin-2-yl)-7-(piperazin-1-yl)-2H-pyrano[2,3-b]pyridin-2-one hydrochloride] | 0.1 to 0.3 | ** (an EC1.5× between >1 and ≦3 μM is indicated by two stars (**)) | *** (a fold increase between >1.35 and ≦1.5 is indicated by three stars (***)) | –
9 | Cc1ccc2nc(-c3cc4ccc(N5C[C@@H]6C[C@H]5CN6)nc4oc3=O)cn2c1 [Cpd 124, 7-[(1S,4S)-2,5-diazabicyclo[2.2.1]hept-2-yl]-3-(6-methylimidazo[1,2-a]pyridin-2-yl)-2H-pyrano[2,3-b]pyridin-2-one] | 0.1 to 0.3 | *** (an EC1.5× between >0.3 μM and ≦1 μM is indicated by three stars (***)) | **** (a fold increase between >1.5 and ≦1.65 is indicated by four stars (****)) | –
10 | Cc1cn2cc(-c3cc4ccc(N5C[C@@H]6C[C@H]5CN6)nc4oc3=O)nc2c(C)n1 [Cpd 135] | ≤ 0.1 | *** (an EC1.5× between >0.3 μM and ≦1 μM is indicated by three stars (***)) | ***** (a fold increase >1.65 is indicated by five stars (*****)) | –
11 | Cc1cc(F)c2nc(-c3cc4ccc(N5C[C@@H]6C[C@H]5CN6)nc4oc3=O)cn2c1 [Cpd 136, 7-[(1S,4S)-2,5-diazabicyclo[2.2.1]hept-2-yl]-3-(8-fluoro-6-methylimidazo[1,2-a]pyridin-2-yl)-2H-pyrano[2,3-b]pyridin-2-one] | ≤ 0.1 | *** (an EC1.5× between >0.3 μM and ≦1 μM is indicated by three stars (***)) | *** (a fold increase between >1.35 and ≦1.5 is indicated by three stars (***)) | –
12 | Cc1cn2cc(-c3cc4ccc(N5CCN[C@@H](C)C5)nc4oc3=O)nc2c(C)n1 [Cpd 146, 3-(6,8-dimethylimidazo[1,2-a]pyrazin-2-yl)-7-[(3S)-3-methylpiperazin-1-yl]-2H-pyrano[2,3-b]pyridin-2-one] | ≤ 0.1 | **** (an EC1.5×≦0.3 μM is indicated by four stars (****)) | **** (a fold increase between >1.5 and ≦1.65 is indicated by four stars (****)) | –

Reference: patent publication US9371336B2, “Compounds for treating spinal muscular atrophy” (PTC Therapeutics Inc., priority 2012, dated 2016)
